Source: the NIST ThermoML archive (doi:10.1016/j.fluid.2016.02.011)

Test: refractive index (Na D-line) (dimensionless); xn = mol fraction of the nth substance listed
Details: 100 kPa, Liquid, minimum deviations angle

Brc1ccccc1 [bromobenzene] + CCCCCC[n+]1ccn(C)c1.O=S(=O)([N-]S(=O)(=O)C(F)(F)F)C(F)(F)F
Details | refractive index
282.96 K, x2 = 0.126 | 1.5213
282.97 K, x2 = 0.014 | 1.5558
282.97 K, x2 = 0.099 | 1.5287
283 K, x2 = 0 | 1.5612
283 K, x2 = 0.012 | 1.5566
283.05 K, x2 = 0.203 | 1.5043
284.39 K, x2 = 0.098 | 1.5279
284.4 K, x2 = 0 | 1.5605
284.53 K, x2 = 0.016 | 1.5545
284.53 K, x2 = 0.094 | 1.5291
284.67 K, x2 = 0.012 | 1.5558
284.89 K, x2 = 0.126 | 1.5204
285.06 K, x2 = 0.203 | 1.5035
285.53 K, x2 = 0.098 | 1.5273
285.73 K, x2 = 0.017 | 1.5534
285.73 K, x2 = 0.091 | 1.5294
285.75 K, x2 = 0 | 1.5598
286.57 K, x2 = 0.012 | 1.5548
286.96 K, x2 = 0 | 1.5591
286.98 K, x2 = 0.126 | 1.5195
287.01 K, x2 = 0.203 | 1.5027
287.53 K, x2 = 0.019 | 1.5516
287.53 K, x2 = 0.086 | 1.53
287.59 K, x2 = 0.098 | 1.5264
287.98 K, x2 = 0 | 1.5585
288.27 K, x2 = 0.012 | 1.5539
288.42 K, x2 = 0.021 | 1.5506
288.42 K, x2 = 0.083 | 1.5304
288.67 K, x2 = 0.085 | 1.5295
288.99 K, x2 = 0 | 1.558
289.12 K, x2 = 0.126 | 1.5186
289.13 K, x2 = 0.022 | 1.5497
289.13 K, x2 = 0.08 | 1.5307
289.18 K, x2 = 0.203 | 1.5018
289.79 K, x2 = 0.085 | 1.529
289.81 K, x2 = 0.098 | 1.5254
289.82 K, x2 = 0.024 | 1.5487
289.82 K, x2 = 0.077 | 1.5313
290.11 K, x2 = 0 | 1.5574
290.23 K, x2 = 0.012 | 1.5529
290.33 K, x2 = 0.026 | 1.5478
290.33 K, x2 = 0.074 | 1.5318
290.81 K, x2 = 0.085 | 1.5286
290.82 K, x2 = 0.027 | 1.547
290.82 K, x2 = 0.072 | 1.5324
290.87 K, x2 = 0.026 | 1.5473
291.09 K, x2 = 0.203 | 1.501
291.14 K, x2 = 0.126 | 1.5177
291.16 K, x2 = 0.029 | 1.5462
291.16 K, x2 = 0.069 | 1.533
291.22 K, x2 = 0 | 1.5568
291.34 K, x2 = 0.012 | 1.5524
291.44 K, x2 = 0.03 | 1.5456
291.44 K, x2 = 0.067 | 1.5336
291.49 K, x2 = 0.075 | 1.5311
291.54 K, x2 = 0.031 | 1.5453
291.54 K, x2 = 0.066 | 1.5338
291.64 K, x2 = 0.031 | 1.5451
291.64 K, x2 = 0.065 | 1.5341
291.71 K, x2 = 0.098 | 1.5245
291.74 K, x2 = 0.032 | 1.5448
291.74 K, x2 = 0.064 | 1.5343
291.83 K, x2 = 0.033 | 1.5445
291.83 K, x2 = 0.063 | 1.5346
291.91 K, x2 = 0.033 | 1.5442
291.91 K, x2 = 0.062 | 1.5349
291.98 K, x2 = 0.034 | 1.5439
291.98 K, x2 = 0.061 | 1.5351
292.03 K, x2 = 0.026 | 1.5467
292.04 K, x2 = 0.035 | 1.5436
292.04 K, x2 = 0.06 | 1.5354
292.08 K, x2 = 0.036 | 1.5433
292.08 K, x2 = 0.059 | 1.5356
292.14 K, x2 = 0.085 | 1.5279
292.15 K, x2 = 0.037 | 1.5428
292.15 K, x2 = 0.058 | 1.536
292.21 K, x2 = 0.038 | 1.5424
292.21 K, x2 = 0.056 | 1.5365
292.21 K, x2 = 0.075 | 1.5307
292.21 K, x2 = 0.126 | 1.5172
292.22 K, x2 = 0.203 | 1.5005
292.24 K, x2 = 0.039 | 1.5421
292.24 K, x2 = 0.055 | 1.5368
292.25 K, x2 = 0.039 | 1.5419
292.25 K, x2 = 0.055 | 1.5369
292.26 K, x2 = 0.04 | 1.5416
292.26 K, x2 = 0.054 | 1.5371
292.27 K, x2 = 0.041 | 1.5414
292.27 K, x2 = 0.053 | 1.5373
292.29 K, x2 = 0.042 | 1.541
292.29 K, x2 = 0.052 | 1.5378
292.3 K, x2 = 0.012 | 1.5518
292.3 K, x2 = 0.043 | 1.5407
292.3 K, x2 = 0.051 | 1.538
292.32 K, x2 = 0 | 1.5563
293.01 K, x2 = 0.085 | 1.5276
293.1 K, x2 = 0.026 | 1.5461
293.22 K, x2 = 0.126 | 1.5167
293.22 K, x2 = 0.203 | 1.5001
293.32 K, x2 = 0 | 1.5557
293.35 K, x2 = 0.041 | 1.5407
293.35 K, x2 = 0.06 | 1.5348
293.39 K, x2 = 0.012 | 1.5513
293.5 K, x2 = 0.075 | 1.5301
293.74 K, x2 = 0.098 | 1.5236
293.93 K, x2 = 0.085 | 1.5271
294.22 K, x2 = 0.026 | 1.5456
294.45 K, x2 = 0.041 | 1.5401
294.49 K, x2 = 0.06 | 1.5343
294.54 K, x2 = 0.075 | 1.5296
295.1 K, x2 = 0.085 | 1.5266
295.1 K, x2 = 0.098 | 1.523
295.32 K, x2 = 0.026 | 1.545
295.66 K, x2 = 0.06 | 1.5337
295.82 K, x2 = 0.041 | 1.5394
295.84 K, x2 = 0.075 | 1.529
296.86 K, x2 = 0.06 | 1.5331
297.11 K, x2 = 0.041 | 1.5388
297.16 K, x2 = 0.075 | 1.5284
297.94 K, x2 = 0.06 | 1.5325
298.49 K, x2 = 0.041 | 1.5381
298.64 K, x2 = 0.026 | 1.5433
298.7 K, x2 = 0.075 | 1.5277
299.03 K, x2 = 0.06 | 1.532
299.63 K, x2 = 0.041 | 1.5375
299.98 K, x2 = 0.06 | 1.5315
300.84 K, x2 = 0.041 | 1.5369
